Measured values reported in US8536160B2, “Azaheterocyclyl derivatives of androstanes and androstenes as medicaments for cardiovascular disorders” (priority 2006, dated 2013).
Where a name gives a salt, the structure may show the parent alone. Read-outs that look alike come from different tables or passages of the source.

Columns and labels:
[1] = target: Dog Kidney Na+, K+-ATPase (Canis lupus familiaris, UniProt P50997); experiment: Inhibition of the enzymatic activity of purified Na+,K+-ATPase (hydrolysis of 32P-ATP); assay type: biochemical
[2] = test system: anesthetized guinea-pig; experiment: Inotropic effect and lethal dose, slow intravenous infusion in anesthetized guinea-pig; assay type: in vivo; design: Maximum dose infused: unit not given here; conditions: for Emax / ED80 / ED (max): Cavia porcellus, iv, 1.5 h; for Emax: maximum increase in contractile force, read-out: Emax % increase in +dP/dTmax; for ED80: read-out: ED80 (inotropic potency, dose increasing +dP/dTmax by 80%); for ED (max): read-out: EDmax (dose inducing maximum positive inotropic effect); for % decrease from Emax after 20 min from the end of the infusion: duration of the inotropic effect; for Maximum dose infused: maximum dose infused in the survived animals
[3] = read-out: Na+, K+-ATPase Inhibition IC50
[4] = dog kidney enzyme, hydrolysis of 32P-ATP in presence and absence of compound, read-out: Na+, K+-ATPase Inhibition IC50
[5] = slow i.v. infusion over 90 minutes, anesthetized guinea-pig
[6] = slow i.v. infusion over 90 minutes

Compound	IC50 ([1]; Na+, K+-ATPase Inhibition IC50)	IC50 [1, 4]	other results
3α-[2-(Azetidin-3-yl)-(Z)-vinyl]androstane-6,7-dione formate [I-dh]	–	–	IC50 [1, 3]: 830 nM
3α-[2-(Pyrrolidin-3-(R)-yl)-(Z)-vinyl]androstane-6,7-dione formate [I-df]	–	–	IC50 [1, 3]: 360 nM
3β-(2(R,S)-Morpholinylcarbonyloxy)androstane-6,7-dione fumarate [I-cz]	–	–	IC50 [1, 3]: 12000 nM
3β-(2-(R,S)-piperazinylcarbonyloxy)androstane-6,7-dione dihydrochloride [I-da]	–	–	IC50 [1, 3]: 68000 nM
3β-(3-(R,S)-Piperidinylcarbonyloxy)androstane-6,7-dione hydrochloride [I-cv]	–	–	IC50 [1, 3]: 92000 nM
CC12CCC3C(CC(=O)C4CC(=NOC5CNC5)CCC43C)C1CCC2=O (mixture of isomers) [I-ab]	260 nM	–	–
C[C@]12CC/C(=N\OC3CCNC3)CC1C(=O)C[C@@H]1[C@@H]2CC[C@]2(C)C(=O)CC[C@@H]12 (mixture of isomers) [I-ac, (E) 3-[3-(RS)-Pyrrolidinyl]oxyiminoandrostane-6,17-dione hydrochloride]	110 nM	–	–
CC12CCC3C(CC(=O)C4CC(=NOCC5CCCN5)CCC43C)C1CCC2=O (mixture of isomers) [I-ah, hydrochloride]	23000 nM	–	–
CC12CCC3C(CC(=O)C4CC(=NOCC5CCCN5)CCC43C)C1CCC2=O (mixture of isomers) [I-ai, hydrochloride]	11000 nM	–	–
CC12CCC3C(CC(=O)C4CC(=NOC5CCCNC5)CCC43C)C1CCC2=O (mixture of isomers) [I-aj, (E) 3-[3′-(R,S)-Piperidinyl]oxyiminoandrostane-6,7-dione hydrochloride]	33000 nM	–	–
CC12CCC3C(CC(O[N+](=O)[O-])C4CC(=NOC5CCNC5)CCC43C)C1CCC2=O (mixture of isomers) [I-ap, (E,Z) 3-[3-(R)-Pyrrolidinyl]oxyimino-17-oxoandrostane-6α-yl nitrate hydrochloride]	–	380 nM	–
C=C1CC2C3CCC(=O)C3(C)CCC2C2(C)CCC(=NOC3CCNC3)CC12 (mixture of isomers) [I-aq, (E,Z) 3-[3-(R)-Pyrrolidinyl]oxyimino-6-methyleneandrostane-17-one hydrochloride]	46 nM	–	–
CC12CCC3C(CC(CO)C4CC(=NOC5CCNC5)CCC43C)C1CCC2=O (mixture of isomers) [I-ar, (E,Z) 3-[3-(R)-Pyrrolidinyl]oxyimino-6α-hydroxymethylandrostan-17-one hydrochloride]	–	26 nM	–
COCC1CC2C3CCC(=O)C3(C)CCC2C2(C)CCC(=NOC3CCNC3)CC12 (mixture of isomers) [I-as, (E,Z) 3-[3-(R)-Pyrrolidinyl]oxyimino-6α-methoxymethylandrostane-17-one hydrochloride]	–	320 nM	–
CC12CCC3C(CC(=NO)C4CC(=NOC5CCNC5)CCC43C)C1CCC2=O (mixture of isomers) [I-av, (E,Z) 3-[3-(R)-Pyrrolidinyl]oxyimino-6(E)-hydroxyiminoandrostan-17-one hydrochloride]	–	–	Emax [2, 5]: 144%; ED80 [2, 5]: 1.49 µmol/kg; ED (max) [2, 5]: 4.3 µmol/kg; % decrease from Emax after 20 min from the end of the infusion ([2]; anesthetized guinea-pig): 100%; Dead/treated [2, 5]: 0/3; Maximum dose infused [2, 6]: 6.3
CC12CCC3C(CC(NC=O)C4CC(=NOC5CCNC5)CCC43C)C1CCC2=O (mixture of isomers) [I-ay, (E,Z) 3-[3-(R)-Pyrrolidinyl]oxyimino-6α-formamidoandrostane-17-one hydrochloride]	–	41 nM	–
CC12CCC3C(CC4(CC4)C4CC(=NOC5CCNC5)CCC34C)C1CCC2=O (mixture of isomers) [I-ba, (Z,E) 3-(3-(R)-Pyrrolidinyloxyimino)-6-(spirocyclopropane)androstane-17-one hydrochloride]	–	220 nM	–
CON=C1CC2C3CCC(=O)C3(C)CCC2C2(C)CCC(=NOC3CCN(C)C3)CC12 (mixture of isomers) [I-bf, (E,Z) 3-[3′-(S)-(1-Methyl)pyrrolidinyl]oxyimino-6-(E)-methoxyimino-androstane-17-one hydrochloride]	–	7600 nM	–
CON=C1CC2C3CCC(=O)C3(C)CCC2C2(C)CCC(=NOC3CCN(C)C3)CC12 (mixture of isomers) [I-bg, (E,Z) 3-[3′-(R)-(1-Methyl)pyrrolidinyl]oxyimino-(E)-6-methoxyiminoandrostane-17-one hydrochloride]	–	5700 nM	–
C[C@]12CC[C@H]3[C@@H](C/C(=N\O)[C@@]4(O)CC(=NO[C@H]5CCNC5)CC[C@]34C)[C@@H]1CCC2=O (mixture of isomers) [I-bq, (E,Z) 3-[3-(S)-Pyrrolidinyl]oxyimino-5α-hydroxy-6-(E)-hydroxyiminoandrostane-17-one hydrochloride]	–	–	Emax [2, 5]: 380%; ED80 [2, 5]: 0.59 µmol/kg; ED (max) [2, 5]: 3.72 µmol/kg; Maximum dose infused [2, 6]: 18.7

Compound	IC50 ([1]; Na+, K+-ATPase Inhibition IC50)	IC50 [1, 4]	other results
CON=C1CC2CC(=NOC3CCNC3)CCC2(C)C2CCC3(C)C(=O)CCC3C12 (mixture of isomers) [I-ce, (E,Z) 3-[3-(R)-Pyrrolidinyl]oxyimino-7(E)-methoxyiminoandrostan-17-one fumarate]	–	3000 nM	–
C=CCON=C1CC2CC(=NOC3CCNC3)CCC2(C)C2CCC3(C)C(=O)CCC3C12 (mixture of isomers) [I-cf, (E,Z) 3-[3′-(R)-Pyrrolidinyl]oxyimino-7-(E)-allyloxyiminoandrostane-17-one fumarate]	–	4000 nM	–
CC12CCC3C(C(CO)CC4CC(=NOC5CCNC5)CCC43C)C1CCC2=O (mixture of isomers) [I-ch, (E,Z) 3-[3′-(R)-Pyrrolidinyl]oxyimino-7α-hydroxymethylandrostane-17-one hydrochloride]	–	160 nM	–
CC12CCC3C(C(CO)CC4CC(=NOC5CCNC5)CCC43C)C1CCC2=O (mixture of isomers) [I-ci, (E,Z) 3-[3′-(R)-Pyrrolidinyl]oxyimino-7β-hydroxymethylandrostane-17-one hydrochloride]	–	330 nM	–
CC12CCC3C(C1CCC2=O)C1(CC1)CC1CC(=NOC2CCNC2)CCC13C (mixture of isomers) [I-co, (Z,E) 3-(3′-(R)-Pyrrolidinyloxyimino)-7-(spirocyclopropane)androstane-17-one hydrochloride]	24 nM	–	–
CC12CCC3C(C(NC=O)CC4CC(=NOC5CCNC5)CCC43C)C1CCC2=O (mixture of isomers) [I-cp, (E,Z) 3-[3′-(R)-Pyrrolidinyl]oxyimino-7α-formamidoandrostane-17-one hydrochloride]	–	4600 nM	–
CN1CCC(ON=C2CCC3(C)C(C2)C(CO)C(=O)C2C4CCC(=O)C4(C)CCC23)C1 (mixture of isomers) [I-ct, (E,Z) 3-[3′-(R)-(1-Methyl)pyrrolidinyl]oxyimino-6α-hydroxymethylandrostane-7,17-dione fumarate]	–	270 nM	–
CC12CCC3C(CC(=O)C4CC(OC(=O)C5CCNC5)CCC43C)C1CCC2=O (mixture of isomers) [I-cy, 3β-(3(R,S)-Pirrolidinylcarbonyloxy)androstane-6,17-dione fumarate]	4200 nM	–	–
C[C@]12CC[C@@H](SC3CCNC3)CC1C(=O)C[C@@H]1[C@@H]2CC[C@]2(C)C(=O)CC[C@@H]12 (mixture of isomers) [I-dc, 3α-[3-(RS)-Pyrrolidinylthio]androstane-6,17-dione fumarate]	–	–	IC50 [1, 3]: 95000 nM
COCC1CC2CC(=NOC3CCNC3)CCC2(C)C2CCC3(C)C(=O)CCC3C12 (mixture of isomers) [I-dm, (E,Z) 3-[3-(R)-Pyrrolidinyl]oxyimino-7α-methoxymethylandrostane-17-one hydrochloride]	–	8100 nM	–
COC1CC2CC(=NOC3CCNC3)CCC2(C)C2CCC3(C)C(=O)CCC3C12 (mixture of isomers) [I-dn, (E,Z) 3-[3-(R)-Pyrrolidinyl]oxyimino-7α-methoxyandrostane-17-one fumarate]	–	5900 nM	–
CC12CCC3C(CC(O)C4CC(=NOC5CCNC5)CCC43C)C1CCC2O (mixture of isomers) [I-do, (E,Z) 3-[3-(R)-Pyrrolidinyl]oxyiminoandrostane-6α,17β-diol hydrochloride]	490 nM	–	–
C=C1CC2C3CCC(=O)C3(C)CCC2C2(C)CCC(=NOC3CCNC3)CC12O (racemic) [I-bk, (E,Z) 3-[3′-(S)-Pyrrolidinyl]oxyimino-5α-hydroxy-6-methylene-androstane-17-one fumarate]	480 nM	–	–
CC12CCC3C(CC(=O)C4CC(=NOC5CCNC5)CCC43C)C1CCC2=O (single isomer, unassigned) [I-ad, hydrochloride]	830 nM	–	–
CC12CCC3C(CC(=O)C4CC(=NOC5CCNC5)CCC43C)C1CCC2=O (single isomer, unassigned) [I-ag, hydrochloride]	110 nM	–	–
CN1CCC(ON=C2CCC3(C)C(C2)C(=O)CC2C4CCC(=O)C4(C)CCC23)C1 (single isomer, unassigned) [I-ak, hydrochloride]	41000 nM	–	–
CN1CCC(ON=C2CCC3(C)C(C2)C(=O)CC2C4CCC(=O)C4(C)CCC23)C1 (single isomer, unassigned) [I-al]	1300 nM	–	–
CC12CCC3C(CC(O)C4CC(=NOC5CCNC5)CCC43C)C1CCC2=O (single isomer, unassigned) [I-ao, hydrochloride]	2300 nM	–	–
C[C@H]1O[C@@H](O[C@H]2[C@@H](O)C[C@H](O[C@H]3[C@@H](O)C[C@H](O[C@H]4CC[C@@]5(C)[C@H](CC[C@@H]6[C@@H]5C[C@@H](O)[C@]5(C)[C@@H](C7=CC(=O)OC7)CC[C@]65O)C4)O[C@@H]3C)O[C@@H]2C)C[C@H](O)[C@@H]1O [digoxin, reference compound]	–	–	Emax [2, 5]: 158%; ED80 [2, 5]: 0.29 µmol/kg; ED (max) [2, 5]: 0.65 µmol/kg; % decrease from Emax after 20 min from the end of the infusion ([2]; anesthetized guinea-pig): 100%; Maximum dose infused [2, 6]: 1.16
